What was measured:
[1] = Cytotoxicity assay (MTT) on fresh spleen cells; type: cell-based, mice; settings: BALB/C, fresh spleen cells (T-lymphocytes); T-lymphocyte (mouse spleen cells), 48 h, MTT
Experimental: (§1) Supplementary Figure 62. Inhibition of the growth of T-lymphocytes by synthetic compounds 1, 31, and 41-43. […]
(§2) Bioassay for the immunosuppressive activities17
(§3) Preparation of spleen cells from mice
(§4) BALB/C mice were sacrificed and spleens were removed aseptically. A single cell suspension was prepared after cell debris and clumps were removed. Erythrocytes were lysed using ammonium chloride buffer solution. The isolated lymphocytes were washed 3 times with PBS containing 2% FBS, and were re-suspended in RPMI 1640 medium at the indicated concentration.
(§5) Fresh spleen cells ([…]) were cultured in 96-well flat plates with 200 µL of RPMI 1640 media containing 10% FBS, 100 U/mL penicillin and 100 µg/mL streptomycin in a humidified, 37 °C, 5% CO2-containing incubator for 48 h, in the presence or absence of various concentrations of the compounds. 18 µL of MTT (5 mg/mL) was added to each well at the final 5 h culture. Then 90 µ L of lysis buffer (10% SDS, 50% DMF, pH 7.2) was added to each well for 6–7 h and the absorbance values at 570 nm were read by microplate reader (Bio-Rad, Model 550). […]

[2] = test system: ConA-induced T-lymphocyte proliferation (spleen cells from BALB/C mice); assay: T cell function assay: ConA-induced T-lymphocyte proliferation ([3H]-thymidine uptake); type: cell-based; settings: for IC50: Mus musculus, ConA (5 μg/mL)-induced T-lymphocyte proliferation, 48 h, [3H]-thymidine uptake
Experimental: Supplementary Figure 63. Inhibition of concanavalin A (ConA)-induced
T-lymphocyte proliferation by synthetic compounds 1, 31, and 41-43.
as §2, §3
as §4, with “concentration. […]” for “concentration.”
1 x 10^6 of fresh spleen cells were cultured for 48 h at the same conditions as mentioned above. The cultures were stimulated with 5 µg/mL of concanavalin A (ConA) to induce T cells proliferative responses. The compounds were added to cultures with indicated concentrations to test their bioactivities. Proliferation was assessed in terms of uptake of [3H]-thymidine during last 8 h culture pulsing with 25 µCi of [3H]-thymidine for each well, and then cells were harvested onto glass fiber filters by a Basic 96 harvester. The incorporated radioactivity was counted by a liquid scintillation counter (1540 MicroBeta Trilux, Perkin–Elmer Life Sciences).

[3] = test system: ConA-induced T cell proliferation; parameters: method as in PMID 18835000, PMID 21843896; settings: natural product, cited from earlier work
mice models = test system: mice models; parameters: method as in PMID 16204471, PMID 16751252; settings: cited from earlier work
[4] = test system: T-lymphocyte (spleen cells from BALB/C mice); assay: Cytotoxicity assay (MTT) on fresh spleen cells; type: cell-based; settings: synthetic vs natural periploside A
Experimental: as §1, §2, §3, §4, §5

T cell = test system: T cell; parameters: method as in PMID 18835000, PMID 21843896; settings: toxicity; natural product; cited from earlier work

`CO[C@H]1[C@@H](O)[C@@H](C)O[C@@H](O[C@H]2[C@@H](OC)C[C@H](O[C@H]3[C@@H](OC)C[C@H](O[C@H]4[C@@H](OC)C[C@H](O[C@@H]5[C@@H](C)O[C@]6(C[C@H]5OC)OCO[C@@H]5C[C@H](O[C@@H](C)[C@@]7(O)CCC8C9CC=C%10C[C@@H](O)CC[C@]%10(C)C9CC[C@@]87C)O[C@H](C)[C@H]5O6)O[C@@H]4C)O[C@@H]3C)O[C@@H]2C)[C@@H]1OC(C)=O` (stereo partly drawn) [C1′′-epi-periploside A (31), C1′′-epi-periploside A] gave a CC50 at 48 h [1] of 1580 ± 190 nM and an IC50 [2] of 410 ± 150 nM.

`CO[C@H]1[C@@H](O)[C@@H](C)O[C@@H](O[C@H]2[C@@H](OC)C[C@H](O[C@H]3[C@@H](OC)C[C@H](O[C@H]4[C@@H](OC)C[C@@H](O[C@@H]5[C@@H](C)O[C@@]6(C[C@H]5OC)OCO[C@@H]5C[C@H](O[C@@H](C)[C@@]7(O)CCC8C9CC=C%10C[C@@H](O)CC[C@]%10(C)C9CC[C@@]87C)O[C@H](C)[C@H]5O6)O[C@@H]4C)O[C@@H]3C)O[C@@H]2C)[C@@H]1OC(C)=O` (stereo partly drawn) [C1′′′-epi-periploside A (41), C1′′′-epi-periploside A] gave a CC50 at 48 h [1] of 11400 ± 3660 nM and an IC50 [2] of 1960 ± 430 nM.

For `CO[C@@H]1C[C@]2(OCO[C@@H]3C[C@H](O[C@@H](C)[C@@]4(O)CCC5C6CC=C7C[C@@H](O)CC[C@]7(C)C6CC[C@@]54C)O[C@H](C)[C@H]3O2)O[C@H](C)[C@H]1O` (stereo partly shown) [Disaccharide 42], the CC50 at 48 h [1] was 12800 ± 520 nM and the IC50 [2] was 6200 ± 3200 nM.

`CO[C@@H]1C[C@]2(OCO[C@@H]3C[C@@H](O[C@@H](C)[C@@]4(O)CCC5C6CC=C7C[C@@H](O)CC[C@]7(C)C6CC[C@@]54C)O[C@H](C)[C@H]3O2)O[C@H](C)[C@H]1O` (stereo partly shown) [Disaccharide 43] showed a CC50 at 48 h [1] of 27700 ± 6610 nM and an IC50 [2] of 3700 ± 2250 nM.

In the case of `COC1CC(OC2C(C)OC3(CC2OC)OCOC2CC(OC(C)C4(O)CCC5C6CC=C7CC(O)CCC7(C)C6CCC54C)OC(C)C2O3)OC(C)C1OC1CC(OC)C(OC2CC(OC)C(OC3OC(C)C(O)C(OC)C3OC(C)=O)C(C)O2)C(C)O1` (stereo not shown) [Periploside A (1), Periploside A], the IC50 ([3]; ConA-induced T cell proliferation) is given as 640 nM, the “inhibition of ConA-induced T cell proliferation compared with reference drugs” value [3] is given as “as potently as rapamycin and cyclosporin A” and the “immunosuppressive effects in mice models” value (mice models) is given as “significant”. The CC50 at 48 h [1] was 2100 ± 320 nM, the “toxicity against T-lymphocyte compared with the natural product” value [4] was “similar” and the CC50 (T cell) was 10100 nM. For the same compound, the IC50 [2] was 170 ± 40 nM and the “activity against ConA-induced T-lymphocyte proliferation compared with the natural product” value ([2]; synthetic vs natural periploside A) was “similar”.

From publication PMC4309423, “Total synthesis of periploside A, a unique pregnane hexasaccharide with potent immunosuppressive effects” (Nature Communications, 2015)
